Experimental data published in patent US8741942B2, “Inhibitors of cellular necrosis” (President and Fellows of Harvard College, priority 2003, dated 2014).
Where a name gives a salt, the structure may show the parent alone.

test system: human Jurkat T cells challenged with Fas ligand and treated with zVAD; assay: Anti-necrotic activity, human Jurkat T cells challenged with Fas ligand and treated with zVAD; type: cell-based; conditions: viability after 36 h by CellTiter ATP assay, read-out: EC50 (μM) for cell viability
Description: (§1) After a cell receives an initial assault either apoptotic, necrotic, or both apoptotic and necrotic mechanisms of cell death may be activated. The present example focuses on the necrosis pathway. Several chemical assaults were used to induce cell death, including exposure to tumor necrosis factor alpha (TNF-α), Fas ligand or β-amyloid protein. Various cell types were also used, including human neuroblastoma cells (SH-SY5Y) and human Jurkat T cells. In order to block the apoptosis mechanism, a general caspase inhibitor, N-benzyloxycarbonyl-valine-alanine-aspartic acid-(OMe) fluoromethyl ketone (zVAD, Polyerino, A. J.; Patterson, S. D. J. Biol. Chem. 1997, 272, 7013-7021), was used. […] Resulting cell death occurs by a necrosis-like mechanism (Holler, N., et al. Nature Immunol. 2000, 1, 489-495; Kawahara, A., et al. J. Cell Biol. 1998, 143, 1353-1360). Experimental compounds were applied to the cells in attempts to rescue them from this necrotic death. Therefore, compounds found to restore cell viability using this protocol are inhibitors of the necrosis pathway.
Compounds were also tested in another necrosis assay utilizing human Jurkat T cells, Fas ligand to induce cell death, and zVAD to inhibit the apoptosis pathway. After 36 h, cell viability was measure by the commercial CellTiter ATP cell viability assay (Promega).
Compounds were screened for anti-necrotic activity utilizing human Jurkat T cells challenged with Fas ligand and treated with zVAD to inhibit the apoptosis pathway.

Compound	EC50 [µM]
CN1C(=O)C(Cc2c[nH]c3ccccc23)NC1=S (centres unmarked) [Compound 893-01, 5-(1H-Indol-3-ylmethyl)-3-methyl-2-thioxo-imidazolidin-4-one]	6
CCN1C(=O)NC(Cc2c[nH]c3ccccc23)C1=O (centres unmarked) [Compound 893-04, 3-Ethyl-5-(1H-indol-3-ylmethyl)-imidazolidine-2,4-dione]	10
CN1C(=O)C(Cc2c[nH]c3cc(F)ccc23)NC1=S (centres unmarked) [Compound 893-05, 5-(6-Fluoro-1H-Indol-3-ylmethyl)-3-methyl-2-thioxo-imidazolidin-4-one]	2.3
CN1C(=O)C(Cc2cn(C)c3ccccc23)NC1=S (centres unmarked) [Compound 893-08, 3-Methyl-5-(1-methyl-1H-Indol-3-ylmethyl)-2-thioxo-imidazolidin-4-one]	35
CN1C(=O)C(Cc2c[nH]c3c(F)cccc23)NC1=S (centres unmarked) [Compound 893-09, 5-(7-Fluoro-1H-Indol-3-ylmethyl)-3-methyl-2-thioxo-imidazolidin-4-one]	4
CN1C(=O)C(Cc2c[nH]c3c(Cl)cccc23)NC1=S (centres unmarked) [Compound 893-10, 5-(7-Chloro-1H-indol-3-ylmethyl)-3-methyl-2-thioxo-imidazolidin-4-one]	1.5
CN1C(=O)C(Cc2c[nH]c3cc(Cl)ccc23)NC1=S (centres unmarked) [Compound 893-11, 5-(6-Chloro-1H-indol-3-ylmethyl)-3-methyl-2-thioxo-imidazolidin-4-one]	67
CN1C(=O)C(Cc2c[nH]c3c(Br)cccc23)NC1=S (centres unmarked) [Compound 893-12, 5-(7-Bromo-1H-indol-3-ylmethyl)-3-methyl-2-thioxo-imidazolidin-4-one]	1.8
COc1cccc2c(CC3NC(=S)N(C)C3=O)c[nH]c12 (centres unmarked) [Compound 893-13, 5-(7-Methoxy-1H-indol-3-ylmethyl)-3-methyl-2-thioxo-imidazolidin-4-one]	10.3
CN1C(=O)NC(Cc2c[nH]c3ccccc23)C1=O (centres unmarked) [Compound 893-20, 3-Methyl-5-(1H-indol-3-ylmethyl)-imidazolidine-2,4-dione]	6
CN1C(=O)C(Cc2csc3ccccc23)NC1=S (centres unmarked) [Compound 893-21, 5-Benzo[b]thiophen-3-ylmethyl-3-methyl-2-thioxo-imidazolidin-4-one]	8

test system: not given; assay: not given; conditions: not given

Compound	melting point [°C]
O=C1NC(=O)C(Cc2c[nH]c3ccccc23)N1 (centres unmarked) (as salt: potassium)	229 to 232
CN1C(=O)C(C)(Cc2c[nH]c3ccccc23)NC1=S (centres unmarked) [Compound 893-02, 5-(1H-Indol-3-ylmethyl)-3,5-dimethyl-2-thioxo-imidazolidin-4-one]	179 to 182
CN1C(=O)C(Cc2c[nH]c3ccccc23)N(C)C1=S (centres unmarked) [Compound 893-03, 5-(1H-Indol-3-ylmethyl)-1,3-dimethyl-2-thioxo-imidazolidin-4-one]	132 to 135
CN1C(=O)C(Cc2c[nH]c3cc(F)ccc23)NC1=S (centres unmarked) [Compound 893-05, 5-(6-Fluoro-1H-Indol-3-ylmethyl)-3-methyl-2-thioxo-imidazolidin-4-one]	126 to 129
COc1ccc2[nH]cc(CC3NC(=S)N(C)C3=O)c2c1 (centres unmarked) [Compound 893-06, 5-(5-Methoxy-1H-Indol-3-ylmethyl)-3-methyl-2-thioxo-imidazolidin-4-one]	181 to 185
CN1C(=O)C(Cc2c[nH]c3ccc(O)cc23)NC1=S (centres unmarked) [Compound 893-07, 5-(5-Hydroxy-1H-Indol-3-ylmethyl)-3-methyl-2-thioxo-imidazolidin-4-one]	166 to 168
CN1C(=O)C(Cc2cn(C)c3ccccc23)NC1=S (centres unmarked) [Compound 893-08, 3-Methyl-5-(1-methyl-1H-Indol-3-ylmethyl)-2-thioxo-imidazolidin-4-one]	155 to 157
CN1C(=O)C(Cc2c[nH]c3c(F)cccc23)NC1=S (centres unmarked) [Compound 893-09, 5-(7-Fluoro-1H-Indol-3-ylmethyl)-3-methyl-2-thioxo-imidazolidin-4-one]	217 to 220
CN1C(=O)C(Cc2c[nH]c3c(Br)cccc23)NC1=S (centres unmarked) [Compound 893-12, 5-(7-Bromo-1H-indol-3-ylmethyl)-3-methyl-2-thioxo-imidazolidin-4-one]	230 to 233
COc1cccc2c(CC3NC(=S)N(C)C3=O)c[nH]c12 (centres unmarked) [Compound 893-13, 5-(7-Methoxy-1H-indol-3-ylmethyl)-3-methyl-2-thioxo-imidazolidin-4-one]	219 to 222
CN1C(=O)C(Cc2c[nH]c3c(Cl)cc(S(C)(=O)=O)cc23)NC1=S (centres unmarked) [Compound 893-16, 5-(7-Chloro-5-methanesulfonyl-1H-indol-3-ylmethyl)-3-methyl-2-thioxo-imidazolidin-4-one]	242 to 245

test system: human FAD-deficient Jurkat T cells challenged with human TNF-alpha; assay: Anti-necrotic activity, FADD-/- Jurkat T cells challenged with human TNF-alpha; type: cell-based; conditions: 10 ng/ml human TNFα, 30 hours, CellTiter-Glo ATP assay, read-out: EC50 (μM) for cell viability
Protocol: Compounds were screened for anti-necrotic activity utilizing human FAD-deficient Jurkat T cells challenged with human TNF-alpha. FADD−/− Jurkat cells (Juo P, et al. Cell Growth Differ. 1999, 10(12):797-804) were seeded at the density of 5*10^5 cells/mL into 96 well white plates (Costar) at 100 μL/well. Cells were treated in duplicate with various concentrations of test compounds in the presence or absence of 10 ng/ml human TNFα (Cell Sciences). After 30 hours viability of the cells was determined using luminescent ATP-based cell viability assay (CellTiter-Glo, Promega). Percentage of protection by the compound was calculated as a ratio of the cps (counts per second) value in the well treated with the test compound and TNFα to the cps value in the well treated with the compound alone.

Compound	EC50 [µM]
Cc1cccc2c(CC3NC(=O)N(C)C3=O)c[nH]c12 (centres unmarked) [Compound 893-23]	0.095
Cc1cccc2c(CC3NC(=O)N(C)C3=O)c[nH]c12 (centres unmarked) [Compound 893-38]	> 10

same assay, conditions: Homo sapiens, Jurkat, 30 h, 10 ng/ml human TNFα, CellTiter-Glo ATP assay, read-out: EC50 (μM) for cell viability

Compound	EC50 [µM]
CN1C(=O)NC(Cc2csc3ccccc23)C1=O (racemic) [Compound 893-39, 5-benzo[b]thiophen-3-ylmethyl-3-methyl-imidazolidine-2,4-dione]	5.4
CN1C(=O)C(Cc2csc3ccccc23)NC1=S (centres unmarked) [Compound 893-21, 5-Benzo[b]thiophen-3-ylmethyl-3-methyl-2-thioxo-imidazolidin-4-one]	0.845
CN1C(=O)NC(Cc2c[nH]c3ccccc23)C1=O (centres unmarked) [Compound 893-22, 5-(1H-Indol-3-ylmethyl)-3-methylimidazolidine-2,4-dione]	0.439
COc1cccc2c(CC3NC(=O)N(C)C3=O)c[nH]c12 (centres unmarked) [Compound 893-25]	0.229
CN1C(=O)NC(Cc2c[nH]c3c(F)cccc23)C1=O (centres unmarked) [Compound 893-28]	0.324
CN1C(=O)N[C@@H](Cc2c[nH]c3c(Cl)cccc23)C1=O [Compound 893-31]	0.303
CN1C(=O)N[C@H](Cc2c[nH]c3c(Cl)cccc23)C1=O [Compound 893-32]	0.078
CN1C(=O)NC(Cc2c[nH]c3c(Cl)cc(Cl)cc23)C1=O (centres unmarked) [Compound 893-33]	> 10
CCN1C(=O)NC(Cc2c[nH]c3c(Cl)cccc23)C1=O (centres unmarked) [Compound 893-34]	0.154
CN1C(=O)C(Cc2c[nH]c3c(Cl)cccc23)N(C)C1=O (centres unmarked) [Compound 893-36, 5-(7-Chloro-1H-indol-3-ylmethyl)-1,3-dimethyl-imidazolidine-2,4-dione]	> 10
CN1C(=O)NC(Cc2cn(C)c3c(Cl)cccc23)C1=O (centres unmarked) [Compound 893-37, 5-(7-Chloro-1-methyl-1H-indol-3-ylmethyl)-3-methyl-imidazolidine-2,4-dione]	1.8
COCCOc1cccc2c(CC3NC(=O)N(C)C3=O)c[nH]c12 (centres unmarked) [Compound 893-41]	> 10
CN1C(=O)NC(Cc2c[nH]c3c(OCc4ccccc4)cccc23)C1=O (centres unmarked) [Compound 893-42]	> 10
Cc1[nH]c2c(Cl)cccc2c1CC1NC(=O)N(C)C1=O (centres unmarked) [Compound 893-43]	> 10
CC(C)N1C(=O)NC(Cc2c[nH]c3c(Cl)cccc23)C1=O (centres unmarked) [Compound 893-44]	> 10
CN1C(=O)NC(Cc2c[nH]c3c(Cl)c(Cl)ccc23)C1=O (centres unmarked) [Compound 893-50]	> 10
O=C1NC(Cc2c[nH]c3c(Cl)cccc23)CO1 (centres unmarked) [Compound 893-51, 4-(7-chloro-1H-indol-3-ylmethyl)-oxazolidin-2-one]	> 10
CN1CC(Cc2c[nH]c3c(Cl)cccc23)NC1=O (centres unmarked) [Compound 893-52, 4-(7-chloro-1H-indol-3-ylmethyl)-1-methyl-imidazolidin-2-one]	> 10
CN1C(=O)OC(Cc2c[nH]c3c(Cl)cccc23)C1=O (centres unmarked) [Compound 893-53, 5-(7-chloro-1H-indol-3-ylmethyl)-3-methyl-oxazolidine-2,4-dione]	0.359

test system: human B cell line U-937; assay: Library screen for inhibition of cell death induced by TNF-α in the presence of zVAD; type: cell-based; conditions: U-937 cells
Description: as §1
Compound libraries were screened for inhibition of cell death induced by TNF-α in the presence of zVAD in human B cell line U-937.

Compound	inhibition of cell death induced by TNF-α in the presence of zVAD
CN1C(=O)C(Cc2c[nH]c3ccccc23)NC1=S (centres unmarked) [Compound 1]	inhibitor of necrosis
